Key:
Assay type in all cases: in vivo
[1] = tested on: Diamond back moth (Plutella xylostella); experiment: Diamond back moth leaf-dip test on cabbage leaves; settings: cabbage leaves dipped, 3rd instar larvae, 72 hours after treatment, read-out: mortality in comparison with untreated controls
Protocol: The active compound was dissolved at the desired concentration in a mixture of 1:1 (vol:vol) distilled water: acetone. Surfactant (Kinetic HV) was added at a rate of 0.01% (vol/vol). The test solution was prepared on the day of use.
Leaves of cabbage were dipped in test solution and air-dried. Treated leaves were placed in petri dishes lined with moist filter paper and inoculated with ten 3rd instar larvae. Mortality was recorded 72 hours after treatment. Feeding damages were also recorded using a scale of 0-100%.

[2] = tested on: Green Peach Aphid (Myzus persicae); experiment: Green peach aphid systemic test, artificial diet under membrane in 96-well microtiter plates; settings: 72 h, adult aphids on treated artificial diet, 3 days, read-out: mortality in comparison with untreated controls
Text: For evaluating control of green peach aphid (Myzus persicae) through systemic means, the test unit consisted of 96-well-microtiter plates containing liquid artificial diet under an artificial mem brane.
The compounds were formulated using a solution containing 75% v/v water and 25% v/v DMSO. Different concentrations of formulated compounds were pipetted into the aphid diet, using a custom built pipetter, at two replications.
After application, 5 - 8 adult aphids were placed on the artificial membrane inside the microtiter plate wells. The aphids were then allowed to suck on the treated aphid diet and incubated at about 23 ± 1°C and about 50 ± 5 % relative humidity for 3 days. Aphid mortality and fecundity was then visually assessed.

[3] = tested on: Tobacco budworm (Heliothis virescens); experiment: Tobacco budworm test, insect diet with eggs in 96-well microtiter plates; settings: 120 h, egg and larval mortality, 5 days, read-out: mortality in comparison with untreated controls
Protocol: For evaluating control of tobacco budworm (Heliothis virescens), the test unit consisted of 96-well-microtiter plates containing an insect diet and 15-25 H. virescens eggs.
The compounds were formulated using a solution containing 75% v/v water and 25% v/v DMSO. Different concentrations of formulated compounds were sprayed onto the insect diet at 10 µl, using a custom-built micro atomizer, at two replications.
After application, microtiter plates were incubated at about 28 ± 1°C and about 80 ± 5 % relative humidity for 5 days. Egg and larval mortality was then visually assessed.

[4] = tested on: Boll weevil (Anthonomus grandis); experiment: Boll weevil test, insect diet with eggs in 96-well microtiter plates; settings: 120 h, egg and larval mortality, 5 days, read-out: mortality in comparison with untreated controls
Protocol: For evaluating control of boll weevil (Anthonomus grandis), the test unit consisted of 96-well-microtiter plates containing an insect diet and 5-10 A. grandis eggs.
The compounds were formulated using a solution containing 75% v/v water and 25% v/v DMSO. Different concentrations of formulated compounds were sprayed onto the insect diet at 5 µl, using a custom-built micro atomizer, at two replications.
After application, microtiter plates were incubated at about 25 ± 1°C and about 75 ± 5 % relative humidity for 5 days. Egg and larval mortality was then visually assessed.

[5] = tested on: Orchid thrips (Dichromothrips corbetti); experiment: Orchid thrips floral-immersion test; settings: adult thrips on dipped orchid petals, 72 hours after treatment, read-out: mortality in comparison with untreated controls
Protocol: Dichromothrips corbetti adults used for bioassay were obtained from a colony maintained continuously under laboratory conditions. For testing purposes, the test compound is diluted in a 1:1 mixture of acetone:water (vol:vol), plus Kinetic HV at a rate of 0.01% v/v.
Thrips control potency of each compound was evaluated by using a floral-immersion technique. All petals of individual, intact orchid flowers were dipped into treatment solution and allowed to dry in Petri dishes. Treated petals were placed into individual re-sealable plastic along with about 20 adult thrips. All test arenas were held under continuous light and a temperature of about 28°C for duration of the assay. After 3 days, the numbers of live thrips were counted on each petal. The percent mortality was recorded 72 hours after treatment.

[6] = tested on: Yellow fever mosquito (Aedes aegypti); experiment: whole plant or invertebrate; settings: 48 h, larval mortality, 2 days, read-out: mortality in comparison with untreated controls
Protocol: For evaluating control of yellow fever mosquito (Aedes aegypti) the test unit consisted of 96-well-microtiter plates containing 200µl of tap water per well and 5-15 freshly hatched A. aegypti larvae.
The active compounds were formulated using a solution containing 75% (v/v) water and 25% (v/v) DMSO. Different concentrations of formulated compounds or mixtures were sprayed onto the insect diet at 2.5µl, using a custom-built micro atomizer, at two replications.
After application, microtiter plates were incubated at 28 ± 1°C, 80 ± 5 % RH for 2 days. Larval mortality was then visually assessed.

CO/N=C(/C)n1ncnc1C(C)NC(=O)c1cc(C(F)(F)F)cc(C(F)(F)F)c1 (stereo not shown) [I-3, N-[1-[2-[(Z)-N-methoxy-C-methyl-carbonimidoyl]-1,2,4-triazol-3-yl]ethyl]-3,5-bis(trifluoromethyl)benzamide]
≥ 75%: mortality at 300 ppm [1] | mortality at 2500 ppm [2] | mortality at 2500 ppm [3] | mortality at 2500 ppm [4] | mortality at 300 ppm [5] | mortality at 2500 ppm [6]

CO/N=C(\C)n1ncnc1C(C)NC(=O)c1cc(C(F)(F)F)cc(C(F)(F)F)c1 (stereo not shown) [I-4, N-[1-[2-[(E)-N-methoxy-C-methyl-carbonimidoyl]-1,2,4-triazol-3-yl]ethyl]-3,5-bis(trifluoromethyl)benzamide]
≥ 75%: mortality at 300 ppm [1] | mortality at 2500 ppm [2] | mortality at 2500 ppm [3] | mortality at 2500 ppm [4] | mortality at 300 ppm [5] | mortality at 2500 ppm [6]

CC(=NO)n1ncnc1C(C)NC(=O)c1cc(C(F)(F)F)cc(C(F)(F)F)c1 (stereo not shown) [I-1, N-[1-[2-[N-hydroxy-C-methyl-carbonimidoyl]-1,2,4-triazol-3-yl]ethyl]-3,5-bis(trifluoromethyl)benzamide]
≥ 75%: mortality at 300 ppm [1] | mortality at 2500 ppm [2] | mortality at 2500 ppm [3] | mortality at 2500 ppm [6]

— patent EP4119547A1, “TRIAZOLE COMPOUNDS FOR THE CONTROL OF INVERTEBRATE PESTS” (priority 2021, dated 2023)
